Laboratory results from PMC8450341 (Frontiers in Physiology, 2021).

Legend:
in vivo = details: male, Holstein, bovine, serum, po, 235 mg
Protocol: (§1) Pharmacokinetic parameters were calculated by a non-compartmental model using Phoenix WinNonlin v8.1 ([Wagner, 1993]).

HDAC1 = experiment: Immunoblotting of HDAC abundance in RV and lung homogenates; type: in vivo, bovine calf; details: vorinostat over initial 5 days of hypoxia, measured at end of 14 days hypoxic exposure, vs untreated PH
Protocol: At the conclusion of the study period, calves were deeply anesthetized and euthanized. Tissue samples from right ventricle free wall and distal lung parenchyma were snap frozen in liquid nitrogen for laboratory analysis. RNA isolation and quantitative PCR were performed as described previously ([Frid et al., 2009]). mRNA abundance was quantitated relative to HPRT by the delta Ct method. The following primers were used (5′–3′). […] TCCA; Osteopontin (SPPA), Fwd:[…]; Hypoxanthine ribosyl transferase (HPRT), Fwd:[…], Rev:[…].
Procedures for immunoblotting and densitometry were performed as described previously ([Li et al., 2011]). HDAC antibodies were obtained from Cell Signaling Technology (HDAC1, #5356; HDAC5, #20458).
(A) Immunoblotting HDAC abundance.

[1] = Serum pharmacokinetics after single oral dose in normoxic calves
Protocol: as §1

[2] = system: IL-6, CSF2, SDF1, IL1β, IL-1RA, TLR2, POSN mRNAs; experiment: Pairwise qPCR of inflammatory and matrikine gene expression; type: in vivo, bovine calf; details: hypoxic vorinostat-treated vs. untreated calf
Protocol: At the conclusion of the study period, calves were deeply anesthetized and euthanized. Tissue samples from right ventricle free wall and distal lung parenchyma were snap frozen in liquid nitrogen for laboratory analysis. RNA isolation and quantitative PCR were performed as described previously ([Frid et al., 2009]). mRNA abundance was quantitated relative to HPRT by the delta Ct method. The following primers were used (5′–3′). Fibronectin, Extracellular Domain A (ED-A Fn), Fwd:[…], Rev:[…]; Tenascin C (TnC), Fwd:G […], Rev:[…] TCCA; Osteopontin (SPPA), Fwd:[…] CACAGA, Rev:[…]; Periostin (POSTN), Fwd:[…], Rev:CAC […]; Skeletal muscle alpha-actin (ACTA1), Fwd:[…], Rev:GAAGGT […]; Brain natriuretic peptide (NPPB), Fwd:[…], Rev:[…]; Hypoxanthine ribosyl transferase (HPRT), Fwd:[…], Rev:[…].
Figure 2. Comparison of inflammatory and matrikine gene expression in vorinostat treated versus untreated hypoxic calves. mRNA abundance was quantitated as described in Methods. For each indicated mRNA, abundance in the vorinostat-treated PH calf was determined relative to that in the untreated PH calf (indicated by dotted line at unity).

bovine PH-fibs = system: bovine PH-fibs; set-up: method as in Li et al., 2011; details: ref Li et al., 2011; cited from earlier work
[3] = cited from earlier work
[4] = system: ED-A Fn, tenascin C, osteopontin and periostin mRNAs; experiment: Real-time PCR of genes in pulmonary remodeling; type: in vivo, bovine calf
Protocol: At the conclusion of the study period, calves were deeply anesthetized and euthanized. Tissue samples from right ventricle free wall and distal lung parenchyma were snap frozen in liquid nitrogen for laboratory analysis. RNA isolation and quantitative PCR were performed as described previously ([Frid et al., 2009]). mRNA abundance was quantitated relative to HPRT by the delta Ct method. The following primers were used (5′–3′). Fibronectin, Extracellular Domain A (ED-A Fn), Fwd:[…], Rev:[…]; Tenascin C (TnC), Fwd:G […], Rev:[…] TCCA; Osteopontin (SPPA), Fwd:[…] […]
(A) Immunoblotting HDAC abundance. RV and lung homogenates were prepared and HDAC abundance was determined by immunoblotting as described in section “Materials and Methods.” Additional untreated control and hypoxic animals were analyzed in parallel for comparison. Protein abundance was quantitated densitometrically relative to beta-actin. *p < 0.05 vs. control (unpaired two-tailed t-test). […] Abundances of indicated mRNAs were quantitated by real-time PCR as described in section “Materials and Methods.” Animals used in the present study were analyzed together with samples from additional untreated hypoxic and normoxic calves (n = 4 each) that were managed according to the same animal protocols described in section “Materials and Methods,” and studied around the same period of time. […]

[5] = set-up: method as in Fraczek et al., 2013; details: dogs, oral; ref Fraczek et al., 2013; cited from earlier work
[6] = system: calves in normoxic or hypoxic conditions; experiment: Clinical signs and blood chemistry during and after dosing; type: in vivo, bovine calf
Description: This dosing regimen was selected to minimize adverse effects based on guidelines for human pediatric patients (Lia Gore MD, Center for Cancer and Blood Disorders, Children’s Hospital Colorado, personal communication.) Group 2 calves received no drug treatment. At this age, the calf digestive system has not matured and the abomasum functions as the sole stomach similar to humans.

[7] = single oral dose, four normoxic calves

## O=C(CCCCCCC(=O)Nc1ccccc1)NO [vorinostat, suberanilohydroxamic acid]
In vivo
  Tmax: ≤ 4 h
HDAC1
  expression of HDAC1 in both lung and RV: tended to decrease
[1]; after single oral administration
  time until serum vorinostat returns to undetectable levels: ≤ 24 h
[1]; [7]
  integrated area under the concentration × time curve: ~1,500 nM•h
  peak serum concentration: ~400 nM
  time to peak serum concentration: ~4 h
[2]
  expression of pro-inflammatory mRNAs including IL-6, CSF2, SDF1, IL1β, IL-1RA, TLR2, and the matrikine POSN: reduced expression
Bovine PH-fibs
  activated fibroblast phenotype: reversed
[3]
  aqueous solubility: poor
[4]; hypertensive calves compared to untreated hypertensive calves
  lung expression of ED-A Fn, TNC, osteopontin and periostin mRNAs: tended to reduce
[4]; normoxic animals
  abundance of ED-A Fn, TNC, osteopontin and periostin mRNAs in normoxic animals: not affected
[5]
  bioavailability: 11%
[6]; data not shown
  standard blood chemistry values: within normal reference intervals
[6]; during or following active dosing, normoxic or hypoxic conditions
  adverse clinical signs attributable to vorinostat administration: No adverse clinical signs
